{"source": "patent US20220174947A1", "about": "“ANTIMICROBIAL MIXTURE CONTAINING 4-(3-ETHOXY-4-HYDROXYPHENYL)BUTAN-2-ONE AND AN ALCOHOL COMPOUND, AND COSMETIC COMPOSITION CONTAINING SAME” (L'OREAL, priority 2018, published 2022)", "test_in_all_cases": "Synergistic antimicrobial activity as MIC, 96-well microplate, optical density at 620 nm", "assay_type_in_all_cases": "cell-based", "settings_in_all_cases": "for microbial growth percentage: 0 A", "key": {"[1]": {"tested_on": "Staphylococcus aureus ATCC 6538", "text": "(§1) FIC Index=(MIC of A with B/MIC of A)+(MIC of B with A/MIC of B [Math. 1]\n(§2) with: • MIC of A with B: minimum concentration of product A in the combination A+B which makes it possible to obtain an inhibitory effect; • MIC of B with A: minimum concentration of product B in the combination A+B which makes it possible to obtain an inhibitory effect; • MIC of A: minimum inhibitory concentration of product A alone; • MIC of B: minimum inhibitory concentration of product B alone. This formula was described for the first time in the article by F. C. Kull, P. C. Eisman, H. D. Sylwestrowka, and R. L. Mayer, Applied Microbiology 9:538-541, 1961.\nThe microbial strain Staphylococcus aureus ATCC 6538 and a double-concentration nutrient broth liquid culture medium were used.\n(§3) A 96-well microplate at an incubation temperature of 32.5° C. is used.\n(§4) The incubation time of the microplate is: • from 24 to 30 h under aerobic conditions for microbial Aspergillus niger ATCC 6275; • from 18 to 24 h under aerobic conditions for Candida albicans ATCC 10231, Pseudomonas aeruginosa ATCC 9027 and Staphylococcus aureus ATCC 6538; • from 24 to 48 h under aerobic conditions for Enterococcus faecalis ATCC 33186.\n(§5) For each compound: A=4-(3-ethoxy-4-hydroxyphenyl) butan-2-one compound B=alcohol compound A 10% (weight/volume) stock solution was prepared by mixing 1 g of compound in 9 ml of aqueous 1% agar solution. Successive dilutions were made with the 1% agar solution.\n(§6) 50 μl of each of the daughter solutions obtained containing compound A or B are added to the microplate wells. 100 μl of Sabouraud liquid nutrient broth inoculated at double concentration with the Aspergillus niger strain and 50 μl of aqueous 1% agar solution are also added thereto.\n(§7) 50 μl of each of the daughter solutions obtained containing compound A and 50 μl of each of the daughter solutions obtained containing compound B are added to the microplate wells. 100 μl of Sabouraud liquid nutrient broth inoculated at double concentration with the strain Aspergillus niger are also added thereto.\n(§8) A positive microbial growth control was also prepared. The positive microbial growth control corresponds to a mixture of 100 μl of aqueous 1% agar solution with 100 μl of Sabouraud liquid nutrient broth inoculated at double concentration with the strain Aspergillus niger in the absence of compounds A and B.\n(§9) An absorbance control was performed in parallel on compounds A and B alone. This control corresponds to 100 μl of double concentration sterile Sabouraud liquid nutrient broth+100 μl of double concentration compound A or B.\n(§10) In the three cases (absorbance control, growth control and test), the final volume present in each of the microplate wells is 200 μl.\n(§11) The test as described above (tests, absorbance control and growth control) was performed again to test the combination A+B on the following strains Enterococcus faecalis, Staphylococcus aureus, Pseudomonas aeruginosa, Candida albicans, where appropriate."}, "[2]": {"tested_on": "Aspergillus niger ATCC 6275", "text": "as §1, §2\nThe microbial strain Aspergillus niger ATCC 6275, and a double-concentration Sabouraud broth liquid culture medium supplemented with polyoxyethylenated (20 OE) sorbitan monopalmitate (Tween 40 from Croda) and Phytagel© BioReagent were used (i.e. a mixture of 5 g of Phytagel+0.6 g of Tween 40+60 g of Sabouraud broth).\nas §3, §4, §5, §6, §7, §8, §9, §10\nIn the two cases (test and control), the inoculum represents the concentration of the Aspergillus niger strain present in the final volume of the wells (200 μl) and is between 2 and 6×10^5 cfu/ml of Aspergillus niger."}, "[3]": {"tested_on": "Enterococcus faecalis ATCC 33186", "text": "as §1, §2\nThe microbial strain Enterococcus faecalis ATCC 33186 and a double-concentration BHI (Brain Heart Infusion) broth liquid culture medium were used.\nas §3, §4, §5, §6, §7, §8, §9, §10, §11"}, "[4]": {"tested_on": "Candida albicans ATCC 10231", "text": "with: • MIC of A with B: minimum concentration of product A in the combination A+B which makes it possible to obtain an inhibitory effect; • MIC of B with A: minimum concentration of product B in the combination A+B which makes it possible to obtain an inhibitory effect; • MIC of A: minimum inhibitory concentration of product A alone; • MIC of B: minimum inhibitory concentration of product B alone. This formula was described for the first time in the article by F. C. Kull, […], and R. L. Mayer, Applied Microbiology 9:538-541, 1961. […] When the FIC index value is less than or equal to 1, it is considered that the combination of test compounds has a synergistic effect. […] A 96-well microplate at an incubation temperature of 32.5° C. is used. […] For each compound: […] 50 μl of each of the daughter solutions obtained containing compound A and 50 μl of each of the daughter solutions obtained containing compound B are added to the microplate wells. 100 μl of Sabouraud liquid nutrient broth inoculated at double concentration with the strain Aspergillus niger are also added thereto. A positive microbial growth control was also prepared. […] An absorbance control was performed in parallel on compounds A and B alone. This control corresponds to 100 μl of double concentration sterile Sabouraud liquid nutrient broth+100 μl of double concentration compound A or B. […] The test as described above (tests, absorbance control and growth control) was performed again to test the combination A+B on the following strains Enterococcus faecalis, Staphylococcus aureus, Pseudomonas aeruginosa, Candida albicans, where appropriate."}, "[5]": {"tested_on": "Pseudomonas aeruginosa ATCC 9027", "text": "with: • MIC of A with B: minimum concentration of product A in the combination A+B which makes it possible to obtain an inhibitory effect; • MIC of B with A: minimum concentration of product B in the combination A+B which makes it possible to obtain an inhibitory effect; • MIC of A: minimum inhibitory concentration of product A alone; • MIC of B: minimum inhibitory concentration of product B alone. This formula was described for the first time in the article by F. C. Kull, […], and R. L. Mayer, Applied Microbiology 9:538-541, 1961. […] When the FIC index value is less than or equal to 1, it is considered that the combination of test compounds has a synergistic effect. The microbial strain Pseudomonas aeruginosa ATCC 9027 and a double-concentration nutrient broth liquid culture medium were used. A 96-well microplate at an incubation temperature of 32.5° C. is used. […] For each compound: […] 50 μl of each of the daughter solutions obtained containing compound A and 50 μl of each of the daughter solutions obtained containing compound B are added to the microplate wells. 100 μl of Sabouraud liquid nutrient broth inoculated at double concentration with the strain Aspergillus niger are also added thereto. A positive microbial growth control was also prepared. […] An absorbance control was performed in parallel on compounds A and B alone. This control corresponds to 100 μl of double concentration sterile Sabouraud liquid nutrient broth+100 μl of double concentration compound A or B. […] The test as described above (tests, absorbance control and growth control) was performed again to test the combination A+B on the following strains Enterococcus faecalis, Staphylococcus aureus, Pseudomonas aeruginosa, Candida albicans, where appropriate."}, "[6]": {"settings": "Staphylococcus aureus, growth <= 25%"}, "[7]": {"settings": "Aspergillus niger, growth <= 25%"}, "[8]": {"settings": "Enterococcus faecalis, growth <= 25%"}}}
{"compound": "Oc1cc(Cl)ccc1Oc1ccc(Cl)cc1Cl", "note": "[B2, 5-chloro-2-(2,4-dichlorophenoxy)phenol]", "values": [{"measurement": "microbial growth percentage", "setting": "[1]; 0.125 B2 weight %", "value": 46, "unit": "%"}, {"measurement": "microbial growth percentage", "setting": "[1]; 0.25 B2 weight %", "value": 14, "unit": "%"}, {"measurement": "% MIC of B2 alone", "setting": "[1]; [6]", "value": 0.25, "unit": "%"}]}
{"compound": "sorbitan caprylate [B3]", "values": [{"measurement": "microbial growth percentage", "setting": "[2]; 0.025 B3 weight %", "value": 50, "unit": "%"}, {"measurement": "microbial growth percentage", "setting": "[2]; 0.05 B3 weight %", "value": 30, "unit": "%"}, {"measurement": "microbial growth percentage", "setting": "[2]; 0.1 B3 weight %", "value": "−2", "unit": "%"}, {"measurement": "% MIC of B3 alone", "setting": "[2]; [7]", "value": 0.1, "unit": "%"}, {"measurement": "microbial growth percentage", "setting": "[3]; 0.125 B3 weight %", "value": 134, "unit": "%"}, {"measurement": "microbial growth percentage", "setting": "[3]; 0.25 B3 weight %", "value": 61, "unit": "%"}, {"measurement": "microbial growth percentage", "setting": "[3]; 0.5 B3 weight %", "value": 62, "unit": "%"}, {"measurement": "microbial growth percentage", "setting": "[3]; 1 B3 weight %", "value": 2, "unit": "%"}, {"measurement": "% MIC of B3 alone", "setting": "[3]; [8]", "value": 1, "unit": "%"}]}
{"compound": "CC(=O)c1ccc(O)cc1", "note": "[B1, 4-hydroxyacetophenone]", "values": [{"measurement": "microbial growth percentage", "setting": "[2]; 0.0625 B1 weight %", "value": 86, "unit": "%"}, {"measurement": "microbial growth percentage", "setting": "[2]; 0.125 B1 weight %", "value": 72, "unit": "%"}, {"measurement": "microbial growth percentage", "setting": "[2]; 0.25 B1 weight %", "value": 79, "unit": "%"}, {"measurement": "microbial growth percentage", "setting": "[2]; 0.5 B1 weight %", "value": 6, "unit": "%"}, {"measurement": "% MIC of B1 alone", "setting": "[2]; [7]", "value": 0.5, "unit": "%"}]}
{"compound": "Cc1cc(O)cc(C)c1Cl", "note": "[B5, 4-chloro-3,5-dimethylphenol]", "values": [{"measurement": "microbial growth percentage", "setting": "[2]; 0.0625 B5 weight %", "value": 99, "unit": "%"}, {"measurement": "microbial growth percentage", "setting": "[2]; 0.125 B5 weight %", "value": 103, "unit": "%"}, {"measurement": "microbial growth percentage", "setting": "[2]; 0.25 B5 weight %", "value": 31, "unit": "%"}, {"measurement": "microbial growth percentage", "setting": "[2]; 0.5 B5 weight %", "value": "−6", "unit": "%"}, {"measurement": "% MIC of B5 alone", "setting": "[2]; [7]", "value": 0.5, "unit": "%"}, {"measurement": "microbial growth percentage", "setting": "[4]; 0.0625 B5 weight %", "value": 73, "unit": "%"}, {"measurement": "microbial growth percentage", "setting": "[4]; 0.125 B5 weight %", "value": 28, "unit": "%"}, {"measurement": "microbial growth percentage", "setting": "[4]; 0.25 B5 weight %", "value": 1, "unit": "%"}, {"measurement": "% MIC of B5 alone", "setting": "[4]; Candida albicans, growth <= 25%", "value": 0.25, "unit": "%"}]}
{"compound": "CCCCCCCC(=O)OCC(O)CO", "note": "(centres unmarked) [B6, glyceryl caprylate]", "values": [{"measurement": "microbial growth percentage", "setting": "[1]; 0.0625 B6 weight %", "value": 83, "unit": "%"}, {"measurement": "microbial growth percentage", "setting": "[1]; 0.125 B6 weight %", "value": 87, "unit": "%"}, {"measurement": "microbial growth percentage", "setting": "[1]; 0.25 B6 weight %", "value": 53, "unit": "%"}, {"measurement": "microbial growth percentage", "setting": "[1]; 0.5 B6 weight %", "value": 48, "unit": "%"}, {"measurement": "microbial growth percentage", "setting": "[1]; 1 B6 weight %", "value": 9, "unit": "%"}, {"measurement": "% MIC of B6 alone", "setting": "[1]; [6]", "value": 1, "unit": "%"}, {"measurement": "microbial growth percentage", "setting": "[5]; 0.1 B6 weight %", "value": 123, "unit": "%"}, {"measurement": "microbial growth percentage", "setting": "[5]; 0.2 B6 weight %", "value": 109, "unit": "%"}, {"measurement": "microbial growth percentage", "setting": "[5]; 0.4 B6 weight %", "value": "−40", "unit": "%"}, {"measurement": "% MIC of B6 alone", "setting": "[5]; Pseudomonas aeruginosa, growth <= 25%", "value": 0.4, "unit": "%"}, {"measurement": "microbial growth percentage", "setting": "[3]; 0.125 B6 weight %", "value": 57, "unit": "%"}, {"measurement": "microbial growth percentage", "setting": "[3]; 0.25 B6 weight %", "value": 22, "unit": "%"}, {"measurement": "microbial growth percentage", "setting": "[3]; 0.5 B6 weight %", "value": 8, "unit": "%"}, {"measurement": "microbial growth percentage", "setting": "[3]; 0.625 B6 weight %", "value": 38, "unit": "%"}, {"measurement": "% MIC of B6 alone", "setting": "[3]; [8]", "value": 0.5, "unit": "%"}]}
